# Several values for one entry are separate records, joined by “and”; a condition that tells them apart may be missing. Identical values can stand only once.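 96-well plates; 48 h exposure; 5 concentrations. Endpoints by linear interpolation between flanking doses. Not reached: highest tested concentration assigned. At the GI50, growth is halved. Definition used: TGI = concentration required for complete inhibition of growth.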
# Experiments:
# Test in all cases: inhibition of tumour cell growth, NCI panel, 48 h
# SNB-19 CNS = tested on: SNB-19 CNS
# A498 renal = tested on: A498 renal
# M14 melanoma = tested on: M14 melanoma
# SF-539 CNS = tested on: SF-539 CNS
# SN12C renal = tested on: SN12C renal
# PC-3 prostate = tested on: PC-3 prostate
# HT29 colon = tested on: HT29 colon
# LOX IMVI melanoma = tested on: LOX IMVI melanoma
# OVCAR-5 ovarian = tested on: OVCAR-5 ovarian
# HCT-15 colon = tested on: HCT-15 colon
SMILES,GI50 (SNB-19 CNS),TGI (SNB-19 CNS),GI50 (A498 renal),TGI (A498 renal),GI50 (M14 melanoma),TGI (M14 melanoma),GI50 (SF-539 CNS),TGI (SF-539 CNS),GI50 (SN12C renal),TGI (SN12C renal),GI50 (PC-3 prostate),TGI (PC-3 prostate),GI50 (HT29 colon),TGI (HT29 colon),GI50 (LOX IMVI melanoma),TGI (LOX IMVI melanoma),GI50 (OVCAR-5 ovarian),TGI (OVCAR-5 ovarian),GI50 (HCT-15 colon),TGI (HCT-15 colon)
COc1cc2c(cc1OCCCCNC(=O)c1cc3ccccc3[nH]1)N=CC1CCCN1C2=O (stereo not drawn),20.2 µM,> 100 µM,22.2 µM,44.4 µM,28.2 µM,> 100 µM,8.57 µM,41.7 µM,18.9 µM,44.8 µM,22 µM,> 100 µM,32.6 µM,> 100 µM,8.96 µM,63.8 µM,22.9 µM,> 100 µM,16.4 µM,58.2 µM
N/C(=N\O)c1ncc(-c2ccc(C(F)(F)F)cc2)c(NC2CCCCCC2)n1,3.27 µM,13.8 µM,1.96 µM,15.8 µM,9.68 µM and 3.24 µM,13.9 µM,3.39 µM,12.3 µM,5.79 µM and 3.05 µM,14.5 µM,5.34 µM and 1.92 µM,12.1 µM,3.24 µM,10.4 µM,8.76 µM and 2.85 µM,10.8 µM,4.51 µM,19.3 µM,2.97 µM and 0.955 µM,15.1 µM
O=C(Nc1cccc(Cl)c1)Nc1cccc(Cl)c1,> 42.9 µM,> 100 µM,2.87 µM,> 100 µM,> 100 µM,> 100 µM,49.1 µM,> 100 µM,> 100 µM,> 100 µM,2.54 µM,> 100 µM,2.26 µM,> 100 µM,32 µM,> 100 µM,> 100 µM,> 100 µM,–,–
O=S(=O)(NCCNc1nccc(-c2c(-c3cccc(O)c3)nc3sccn23)n1)c1ccc(F)cc1,16.5 µM,75.3 µM,7.58 µM,25.2 µM,0.568 µM,16.6 µM,5.23 µM,24.6 µM,4.26 µM,44.9 µM,5.66 µM,63.5 µM,2.66 µM,32.4 µM,4.11 µM,20.1 µM,17.8 µM,64.6 µM,10.8 µM,55.4 µM
CCCNc1nc(N(C)O)nc(N(C)O)n1,4.07 µM,> 100 µM,9.51 µM,> 62.6 µM,2.05 µM,> 29.4 µM,2.51 µM,> 54.4 µM,4.27 µM,> 100 µM,6.66 µM,> 100 µM,4.53 µM,> 100 µM,1.31 µM,> 100 µM,6.09 µM,> 100 µM,0.504 µM,> 100 µM
CC1=C(N2CC2)C(=O)C(CO)=C(N2CC2)C1=O,0.0025 µM,–,0.0158 µM,0.041 µM and 0.22 µM,0.0162 µM,0.119 µM and 0.0522 µM,0.00301 µM,0.019 µM and 0.0593 µM,0.0057 µM,0.0367 µM and 0.139 µM,0.0159 µM and < 0.0213 µM,0.0791 µM,–,0.148 µM and 0.435 µM,0.00307 µM,0.0226 µM and 0.187 µM,0.194 µM,0.74 µM,0.02 µM,0.584 µM
COc1ccc(CN2c3ccccc3Sc3ccccc32)cc1F,0.463 µM,> 100 µM,0.283 µM,0.927 µM,0.365 µM,> 100 µM,0.316 µM,5.58 µM,1.13 µM,> 100 µM,0.448 µM,> 100 µM,0.352 µM,> 100 µM,0.798 µM,> 100 µM,> 30.4 µM,> 100 µM,0.435 µM,> 100 µM
CCN1CCN(CCOc2ccc(CNc3ccc4nc(CCC5CCCCC5)[nH]c4c3)cc2)CC1,3.58 µM,13 µM,1.44 µM,3.35 µM,1.68 µM,3.29 µM,1.57 µM,3 µM,2.72 µM,11 µM,2.02 µM,5.89 µM,0.563 µM,2.38 µM,1.71 µM,3.15 µM,2.33 µM,7.18 µM,1.43 µM,3.41 µM
O=C1C2=C(C(=O)c3c(O)ccc(O)c31)N(c1ccc(N3CCOCC3)nc1)Cc1ccccc1O2,1.45 µM,3.6 µM,2.3 µM,4.74 µM,0.276 µM,0.894 µM,0.276 µM,0.944 µM,0.262 µM,0.848 µM,0.387 µM,1.89 µM,0.294 µM,0.787 µM,0.188 µM,0.517 µM,0.777 µM,2.3 µM,0.205 µM,0.622 µM
O=C(Oc1cccnc1)c1ccccc1Nc1ccnc(C(F)(F)F)c1,0.54 µM,> 100 µM,2.48 µM,13.1 µM,0.0536 µM,3.11 µM,0.0428 µM,> 100 µM,0.17 µM,> 94.8 µM,0.449 µM,> 100 µM,0.0487 µM,–,0.0406 µM,> 37.8 µM,0.63 µM,> 95.9 µM,0.121 µM,> 100 µM
Cn1cc(-c2csc(-c3c[nH]c4ncccc34)n2)c2cc(Br)cnc21,6.74 µM,> 100 µM,10.9 µM,> 100 µM,4.06 µM,> 100 µM,27.7 µM,> 100 µM,–,–,4.35 µM,> 100 µM,6.75 µM,> 100 µM,4.26 µM,> 100 µM,> 100 µM,> 100 µM,13.7 µM,> 100 µM
Oc1nc(NCCc2ccccc2)sc1/C=C1\C=Nc2ncccc21,2.47 µM and 2.82 µM,11.2 µM and 18.7 µM,1.95 µM and 1.84 µM,4.19 µM and 4.45 µM,3.72 µM and 3.49 µM,12.5 µM and 10.4 µM,1.32 µM and 1.47 µM,3.82 µM and 3.65 µM,2.63 µM and 3.92 µM,12.9 µM and 74.1 µM,3.27 µM and 3.87 µM,12.2 µM and 19 µM,2.8 µM and 4 µM,11.4 µM and 26.7 µM,2.36 µM and 2.61 µM,10.6 µM and 9.37 µM,2.94 µM and 2.93 µM,27.8 µM and 16.9 µM,2.63 µM and 3.15 µM,13.9 µM and 33.5 µM
O=C(CCCn1c2c(sc3ncccc32)c(=O)n2nnc(-c3ccccc3)c12)NCCc1cnc[nH]1,10.8 µM,33.7 µM,6.84 µM,22.6 µM,3.5 µM,19.4 µM,0.316 µM,14.9 µM,0.331 µM,13.4 µM,10.9 µM,> 100 µM,3.89 µM,54.9 µM,12.4 µM,26.6 µM,11.6 µM,32.7 µM,5.8 µM,> 100 µM

# — PubChem BioAssay (NCI)
